Experimental data published in ChEMBL document CHEMBL1146583, “Acetylenic acids inhibiting azole-resistant Candida albicans from Pentagonia gigantifolia” (J Nat Prod, 2003).
Converted amounts (≈) assume the structure as drawn. The source made the active and inactive calls. No cut-off for these calls is given here.

Experiments:
Candida albicans [1] = assay: Antifungal activity against fluconazole-resistant Candida albicans isolate 5 after 24 to 48 hrs by NCCLS method; assay type: functional, organism-based; settings: for IC50 / IC80: Candida albicans
Candida albicans [2] = assay: Antifungal activity against Candida albicans ATCC 90028 by sphingolipid reversal assay in presence of 2.5 ug/mL dihydrosphingosine; assay type: functional, organism-based
Candida albicans [3] = assay: Antifungal activity against Candida albicans ATCC 90028 by sphingolipid reversal assay in presence of 5 ug/mL stearylamine; assay type: functional, organism-based
Candida albicans [4] = assay: Antifungal activity against Candida albicans ATCC 90028 by sphingolipid reversal assay in presence of 1.25 ug/mL dihydrosphingosine; assay type: functional, organism-based
Candida albicans [5] = assay: Antifungal activity against Candida albicans ATCC 90028 after 24 to 48 hrs by NCCLS method; assay type: functional, organism-based
Candida albicans [6] = assay: Antifungal activity against fluconazole-resistant Candida albicans isolate 17 at 100 ug/mL after 24 to 48 hrs by NCCLS method; assay type: functional, organism-based
Candida albicans [7] = assay: Antifungal activity against fluconazole-resistant Candida albicans isolate 8 after 24 to 48 hrs by NCCLS method; assay type: functional, organism-based; settings: for IC50 / IC80: Candida albicans
Candida albicans [8] = assay: Antifungal activity against Candida albicans ATCC 90028 by sphingolipid reversal assay in presence of 15 ug/mL stearylamine; assay type: functional, organism-based
Candida albicans [9] = assay: Antifungal activity against Candida albicans ATCC 90028 by sphingolipid reversal assay in presence of 5.0 ug/mL dihydrosphingosine; assay type: functional, organism-based
Candida albicans [10] = assay: Antifungal activity against Candida albicans ATCC 90028 by sphingolipid reversal assay in presence of 30 ug/mL stearylamine; assay type: functional, organism-based
Candida albicans [11] = assay: Antifungal activity against fluconazole-resistant Candida albicans isolate 17 after 24 to 48 hrs by NCCLS method; assay type: functional, organism-based; settings: for IC50 / IC80: Candida albicans
Candida albicans [12] = assay: Antifungal activity against fluconazole-resistant Candida albicans isolate 2 after 24 to 48 hrs by NCCLS method; assay type: functional, organism-based; settings: for IC50 / IC80: Candida albicans
Candida albicans [13] = assay: Antifungal activity against fluconazole-susceptible Candida albicans isolate 1 after 24 to 48 hrs by NCCLS method; assay type: functional, organism-based; settings: for IC80 / IC50: Candida albicans
SK-MEL = assay: Cytotoxicity against human SK-MEL cells at 10 ug/mL; assay type: functional, cell-based
KB = assay: Cytotoxicity against human KB cells at 10 ug/mL; assay type: functional, cell-based
BT-549 = assay: Cytotoxicity against human BT549 cells at 10 ug/mL; assay type: functional, cell-based
Vero = assay: Cytotoxicity against african green monkey Vero cells at 10 ug/mL; assay type: cell-based; settings: chlorocebus sabaeus
SK-OV-3 = assay: Cytotoxicity against human SKOV3 cells at 10 ug/mL; assay type: functional, cell-based

| Compound | Fungicidal (Candida albicans [1]) | IC50 (Candida albicans [1]) | IC80 (Candida albicans [1]) | IC50 (Candida albicans [2]) | IC50 (Candida albicans [3]) | IC50 (Candida albicans [4]) | MIC (Candida albicans [5]) | Fungicidal (Candida albicans [7]) | IC50 (Candida albicans [7]) | IC80 (Candida albicans [7]) | IC50 (Candida albicans [8]) | IC50 (Candida albicans [9]) | IC50 (Candida albicans [10]) | IC50 (Candida albicans [11]) | IC80 (Candida albicans [11]) | Fungicidal (Candida albicans [12]) | IC50 (Candida albicans [12]) | IC80 (Candida albicans [12]) | Fungicidal (Candida albicans [13]) | IC50 (Candida albicans [5]) | other results |
| --- | --- | --- | --- | --- | --- | --- | --- | --- | --- | --- | --- | --- | --- | --- | --- | --- | --- | --- | --- | --- | --- |
| OC(Cn1cncn1)(Cn1cncn1)c1ccc(F)cc1F [FLUCONAZOLE] | 10 µg/mL | 7.5 µg/mL (≈ 24.5 µM) | 10 µg/mL (≈ 32.7 µM) | 0.5 µg/mL | 0.65 µg/mL | 0.3 µg/mL | 0.29 µg/mL (≈ 0.947 µM) | 25 µg/mL | 15 µg/mL (≈ 49 µM) | 20 µg/mL (≈ 65.3 µM) | 0.8 µg/mL | 0.7 µg/mL | 0.75 µg/mL | 40 µg/mL (≈ 131 µM) | 95 µg/mL (≈ 310 µM) | 10 µg/mL | 1 µg/mL (≈ 3.27 µM) | 5 µg/mL (≈ 16.3 µM) | 2 µg/mL | – | Activity (Candida albicans [6]): inactive; IC80 (Candida albicans [13]): 0.2 µg/mL (≈ 0.653 µM) |
| CCCCCCCCCCCCC#CCCCCC(=O)OC | – | – | – | – | – | – | – | – | – | – | – | – | – | – | – | – | – | – | – | – | Activity (Candida albicans [5]): inactive |
| CCCCCCCCCCCCC#CCCCCC(=O)O [6-NONADECYNOIC ACID] | 0.8 µg/mL | 0.45 µg/mL (≈ 1.53 µM) | 0.6 µg/mL (≈ 2.04 µM) | 2 µg/mL | 5 µg/mL | 1 µg/mL | 0.52 µg/mL (≈ 1.77 µM) | 0.8 µg/mL | 0.5 µg/mL (≈ 1.7 µM) | 0.65 µg/mL (≈ 2.21 µM) | 15 µg/mL | 4.5 µg/mL | 35 µg/mL | 0.45 µg/mL (≈ 1.53 µM) | 0.6 µg/mL (≈ 2.04 µM) | 0.35 µg/mL | 0.25 µg/mL (≈ 0.849 µM) | 0.3 µg/mL (≈ 1.02 µM) | 0.45 µg/mL | 0.33 µg/mL (≈ 1.12 µM) | Activity (SK-MEL): inactive; Activity (KB): inactive; Activity (BT-549): inactive; Activity (Vero): Not Active; Fungicidal (Candida albicans [11]): 0.7 µg/mL; Activity (SK-OV-3): inactive; IC50 (Candida albicans [13]): 0.25 µg/mL (≈ 0.849 µM); IC80 (Candida albicans [13]): 0.35 µg/mL (≈ 1.19 µM) |
| CCCCCCCCCCCC#CCCCCC(=O)O [6-OCTADECYNOIC ACID] | 2 µg/mL | 0.7 µg/mL (≈ 2.5 µM) | 1 µg/mL (≈ 3.57 µM) | 2 µg/mL | 3.5 µg/mL | 0.7 µg/mL | 1.04 µg/mL (≈ 3.71 µM) | 1.5 µg/mL | 0.9 µg/mL (≈ 3.21 µM) | 1 µg/mL (≈ 3.57 µM) | 15 µg/mL | 4.5 µg/mL | 30 µg/mL | 0.65 µg/mL (≈ 2.32 µM) | 1 µg/mL (≈ 3.57 µM) | 0.75 µg/mL | 0.5 µg/mL (≈ 1.78 µM) | 0.65 µg/mL (≈ 2.32 µM) | 0.7 µg/mL | 0.38 µg/mL (≈ 1.35 µM) | Activity (SK-MEL): inactive; Activity (KB): inactive; Activity (BT-549): inactive; Activity (Vero): Not Active; Fungicidal (Candida albicans [11]): 1.5 µg/mL; Activity (SK-OV-3): inactive; IC50 (Candida albicans [13]): 0.45 µg/mL (≈ 1.6 µM); IC80 (Candida albicans [13]): 0.6 µg/mL (≈ 2.14 µM) |
| Nc1nc(=O)[nH]cc1F [FLUCYTOSINE] | – | – | – | 0.15 µg/mL | 0.25 µg/mL | 0.2 µg/mL | 1.04 µg/mL (≈ 8.06 µM) | – | – | – | 0.2 µg/mL | 0.1 µg/mL | 0.25 µg/mL | – | – | – | – | – | – | 0.47 µg/mL (≈ 3.64 µM) | – |
| CCCCCCCCCCCC#CCCCCC(=O)OC | – | – | – | – | – | – | – | – | – | – | – | – | – | – | – | – | – | – | – | – | Activity (Candida albicans [5]): inactive |
| C[C@@H]1[C@H](O)[C@@H](C)/C=C/C=C/C=C/C=C/C=C/C=C/C=C/[C@H](O[C@@H]2O[C@H](C)[C@@H](O)[C@H](N)[C@@H]2O)C[C@@H]2O[C@](O)(C[C@@H](O)C[C@@H](O)[C@H](O)CC[C@@H](O)C[C@@H](O)CC(=O)O[C@H]1C)C[C@H](O)[C@H]2C(=O)O [AMPHOTERICIN B] | – | – | – | – | – | – | 0.52 µg/mL (≈ 0.563 µM) | – | – | – | 0.4 µg/mL | – | 0.65 µg/mL | – | – | – | – | – | – | 0.23 µg/mL (≈ 0.249 µM) | – |
